For 7 substances, target mRNA knockdown results are on record in the OligoGym collection.

HELM strings list units from the 5' end as sugar, base in round brackets, then linkage (d deoxyribose, r ribose, m 2'-O-methyl, p phosphodiester). Strings are as the collection lists them, not checked against the first reports. ss, as = sense and antisense strand; [lna] = locked nucleic acid (LNA); [s4r] = 4'-thioribose; [fl2r] = 2'-fluoro
Note: test system not given here.

The conditions of the series: siRNA.
Consider “RNA1{r(A)p.r(A)p.r(A)p.r(C)p.m(C)p.r(U)p.m(C)p.r(A)p.r(G)p.r(C)p.r(C)p.r(C)p.m(U)p.r(A)p.r(A)p.r(C)p.r(G)p.r(G)p.r(U)p.r(T)p.r(T)}|RNA2{r(A)p.r(C)p.r(C)p.r(G)p.r(U)p.m(U)p.r(A)p.r(G)p.r(G)p.r(G)p.r(C)p.m(U)p.r(G)p.r(A)p.r(G)p.r(G)p.r(U)p.r(U)p.r(U)p.r(T)p.r(T)}$$$RNA1{StrandType:ss}|RNA2{StrandType:as}$”, for which the target mRNA knockdown is 79%.

In turn, “RNA1{r(C)p.r(G)p.r(U)p.r(A)p.r(C)p.r(G)p.r(C)p.r(G)p.r(G)p.r(A)p.r(A)p.r(U)p.r(A)p.r(C)p.r(U)p.r(U)p.r(C)p.r(G)p.r(A)p.r(T)p.r(T)}|RNA2{[s4r](U)p.[s4r](C)p.[s4r](G)p.[s4r](A)p.[s4r](A)p.[s4r](G)p.[s4r](U)p.[s4r](A)p.[s4r](U)p.[s4r](U)p.[s4r](C)p.[s4r](C)p.[s4r](G)p.[s4r](C)p.[s4r](G)p.[s4r](U)p.[s4r](A)p.[s4r](C)p.[s4r](G)p.r(T)p.r(T)}$$$RNA1{StrandType:ss}|RNA2{StrandType:as}$” displayed a target mRNA knockdown of 16.6%.

The substance “RNA1{r(G)p.r(A)p.r(C)p.r(C)p.r(A)p.r(C)p.r(G)p.r(A)p.r(A)p.r(G)p.r(A)p.r(G)p.r(U)p.[fl2r](U)p.r(A)p.r(A)p.r(C)p.r(C)p.r(C)p.r(T)p.r(T)}|RNA2{r(G)p.r(G)p.r(G)p.r(U)p.[fl2r](U)p.r(A)p.r(A)p.r(C)p.r(U)p.r(C)p.r(U)p.r(U)p.r(C)p.r(G)p.r(U)p.r(G)p.r(G)p.r(U)p.r(C)p.r(T)p.r(T)}$$$RNA1{StrandType:ss}|RNA2{StrandType:as}$” displayed a target mRNA knockdown of 82%.

“RNA1{r(C)p.r(U)p.r(U)p.r(A)p.r(C)p.r(G)p.r(C)p.r(U)p.r(G)p.r(A)p.r(G)p.r(U)p.r(A)p.r(C)p.r(U)p.r(U)p.r(C)p.r(G)p.r(A)p.r(T)p.r(T)}|RNA2{r(U)p.r(C)p.r(G)p.r(A)p.r(A)p.r(G)p.r(U)p.r(A)p.[lna](C)p.r(U)p.r(C)p.r(A)p.r(G)p.r(C)p.r(G)p.r(U)p.r(A)p.r(A)p.r(G)p.r(T)p.r(T)}$$$RNA1{StrandType:ss}|RNA2{StrandType:as}$” registered a target mRNA knockdown of 85%.

The substance “RNA1{r(G)p.r(C)p.r(G)p.r(A)p.r(G)p.m(C)p.r(A)p.r(G)p.r(A)p.r(G)p.r(A)p.r(A)p.r(U)p.r(C)p.m(U)p.r(A)p.r(C)p.r(C)p.r(U)p.r(T)p.r(T)}|RNA2{r(A)p.r(G)p.r(G)p.m(U)p.r(A)p.r(G)p.r(A)p.r(U)p.r(U)p.r(C)p.r(U)p.r(C)p.m(U)p.r(G)p.r(C)p.r(U)p.r(C)p.r(G)p.r(C)p.r(T)p.r(T)}$$$RNA1{StrandType:ss}|RNA2{StrandType:as}$” yielded a target mRNA knockdown of 90%.

In turn, “RNA1{r(C)p.r(U)p.r(A)p.r(G)p.r(A)p.r(G)p.r(G)p.r(A)p.r(U)p.r(C)p.r(U)p.r(U)p.r(G)p.r(A)p.r(A)p.r(G)p.r(A)p.r(C)p.r(C)p.r(T)p.r(T)}|RNA2{r(G)p.r(G)p.r(U)p.r(C)p.r(U)p.r(U)p.[fl2r](C)p.r(A)p.r(A)p.r(G)p.r(A)p.r(U)p.r(C)p.r(C)p.r(U)p.r(C)p.[fl2r](U)p.r(A)p.r(G)p.r(T)p.r(T)}$$$RNA1{StrandType:ss}|RNA2{StrandType:as}$” showed a target mRNA knockdown of 95%.

“RNA1{r(G)p.r(G)p.r(A)p.r(G)p.m(C)p.r(A)p.r(C)p.r(G)p.r(C)p.r(U)p.m(U)p.r(A)p.r(C)p.m(U)p.r(A)p.r(C)p.r(C)p.r(U)p.r(U)p.r(T)p.r(T)}|RNA2{r(A)p.r(A)p.r(G)p.r(G)p.m(U)p.r(A)p.r(G)p.m(U)p.r(A)p.r(A)p.r(G)p.r(C)p.r(G)p.m(U)p.r(G)p.r(C)p.r(U)p.r(C)p.r(C)p.r(T)p.r(T)}$$$RNA1{StrandType:ss}|RNA2{StrandType:as}$” yielded a target mRNA knockdown of 68%.
